Tests used:
asthma mice [1] = assay: Example 6: asthma mice challenged days 9-18, local atomization vs intraperitoneal Dex, lung function and pathology; format: in vivo, BALB/c mice; conditions: 40 μg Dex per mouse
Experimental: (§1) Lung histopathology. The lungs of mice were fixed in 10% formalin, embedded in paraffin, sectioned, stained with H&E (Merck & Co, Inc) and PAS (Sigma), respectively, and examined under a 20-fold microscope.
Lung function measurement. After being anesthetized with 2% pentobarbital sodium, the mice were subjected to respiratory provocation test with methacholine (Sigma) at 3.125 mg/ml, 6.25 mg/ml, and 12.5 mg/ml prepared in PBS, respectively. The airway resistance curve was plotted and analyzed (FinePoint NAM). The assay was performed using the BUXCO Airway Resistance and Lung Compliance System (BUXCO Electronics).
Modeling of asthma model mice and administration. The same mice as in Example 1 were used for asthma modeling, which were sensitized by intraperitoneal injection with 100 μg of ovalbumin (OVA) (Sigma) and 2 mg of Al(OH)3 for injection (Sigma) on days 1 and 8, and challenged by daily nasal instillation with 20 μl of 2% OVA on days 9-18. According to the purpose of the experiment, 40 μg Dex was intraperitoneally injected on days 12-18, 14-18 and 16-18, or 25,000 IU IL-2(PEG)+5 μg Bud was administered by atomization on days 16-18, respectively.
Administration and histopathological analysis were performed in the same manner as in Example 2, and lung function test was performed in the same manner as in Example 3. […]

asthma mice [2] = assay: Lung histopathology (H&E, PAS) of OVA asthma mice; format: in vivo, BALB/c mice; conditions: same dose of the drug alone as in the combination, atomization days 12-14
Experimental: (§2) Female BALB/c mice aged 6-8 weeks (purchased from SLAC Laboratory Animal Co., Ltd.) were used for modeling of asthma, which were sensitized by intraperitoneal injection with 100 μg of ovalbumin (OVA) (Sigma) and 2 mg of Al(OH)3 for injection (Sigma) on days 1 and 8, and challenged by daily nasal instillation with 20 μl of 2% OVA on days 9-14 (FIG. 1A).
(§3) The asthma mice model of Example 1 were subjected to drug intervention while challenge by nasal instillation on days 12-14. The specific administration method was that the mice were anesthetized with 7% chloral hydrate (Sangon Biotech (Shanghai) Co., Ltd.) and then administrated quantitatively through atomization in the lung using an atomization metered dosing device (MicroSprayer®—Model IA-1B), and the administration volume was fixed at 25 ul/mouse, and the administration dose was adjusted by the level of concentration. On the 15th day, relevant indicators were detected.
as §1

[3] = tested on: Treg in bronchoalveolar lavage fluid; assay: Flow cytometry of Treg in bronchoalveolar lavage fluid of OVA asthma mice after atomization in the lung; format: in vivo, BALB/c mice; conditions: same dose of the drug alone as in the combination, atomization days 12-14
Experimental: as §2, §3
Collection of bronchoalveolar lavage fluid. The mice were sacrificed by cervical dislocation. […] The IFN-γ, IL-4, IL-10, and IL-13 in the supernatant were measured by using commercial ELISA kit (R&D Corp).
Flow cytometry. […] All results were analyzed by FlowJo software (Treestar).

CTLL-2 cell = CTLL-2 cell assay of IL-2 activity; format: cell-based; conditions: compared with IL-2 working standard

Q: C[C@@H]1C[C@H]2[C@@H]3CCC4=CC(=O)C=C[C@]4(C)[C@@]3(F)[C@@H](O)C[C@]2(C)[C@@]1(O)C(=O)CO [Dex, dexamethasone] was tested. Which “duration of intraperitoneal injection required to exert a therapeutic effect on asthma” value (asthma mice [1]) did it give?
A: Its value is “at least 7 consecutive days”.

Q: With “IL-2: human-derived IL-2, sequence SEQ ID NO. 1 (Xiamen Amoytop Biotech Co., Ltd.)” as the compound, how does the “pathological manifestations of lung inflammation, single drug alone” value (asthma mice [2]) read?
A: Its value is “could not be achieved”.

Q: And the “Treg in bronchoalveolar lavage fluid, single drug alone” value [3]?
A: Its value is “could not be achieved”.

Q: With “PEG-modified IL-2: IL-2 modified with a non-branched PEG of a molecular weight of 20 kD, main site N-terminus” as the compound, how does the activity (CTLL-2 cell) read?
A: The activity was “comparable to that of the IL-2 working standard”.

— patent publication US10898576B2, “Glucocorticoid combined with polyethylene glycol-modified interleukin 2 for treating respiratory disease” (priority 2016, dated 2021)
